“Also recorded” adds a separate entry of the source.
Assays:
[1] = system: Trap1 KO MIO-M1 cells; assay: TRAP1 inhibitor effects in Trap1 KO MIO‐M1 cells; format: cell-based, human
Description: MIO‐M1 Trap1 KO cell lines were generated using CRISPR/Cas9‐derived RNA‐guided endonucleases (Toolgen; Seoul, Republic of Korea). MIO‐M1 cells were co‐transfected with the Cas9 vector and TRAP1‐sgRNA expression vector (sgRNA sequence 1; 5′‐[…]‐3′ and sequence 2; 5′‐[…]‐3′) using jetPRIME transfection reagent (Polyplus; Illkirch‐Graffenstaden, France). Transfected cells were selected in culture medium containing […] puromycin (Sigma). Single‐cell colonies were collected using a cloning cylinder (I.D. × H 6.4 mm × 8 mm; Sigma) and analyzed using T7 endonuclease I to confirm Trap1 KO.
Supplementary Figure 16. Calpain-1 autolysis and HIF1α degradation in Trap1 […]
A) HIF1α degradation and calpain-1 autolysis in Trap1 knockout (KO) MIO-M1 cells. Trap1 KO MIO-M1 cells were generated as described in the Experimental Section and incubated in hypoxia for 6 hr, followed by analysis using western blotting. Under hypoxia, HIF1α degradation and autoproteolysis of calpain-1 were found in Trap1 KO MIO-M1 cells, when compared with wild type (WT) cells. […]
cell lines were established using MIO-M1 cells. WT and KO cells were incubated with MitoQ for 6 hr under hypoxia and analyzed by western blotting. Trap1 KO reduced the expression of […]
Quantification of the HIF1α protein level. HIF1α western blot density was analyzed and compared. Data are expressed as mean ± SEM from four independent experiments.
C) Cytoplasmic calcium concentration. WT and Trap1-KO MIO-M1 cells were labeled with […]
Fluo-4 AM, incubated with 3 μM gamitrinib or 1 μM MitoQ for 6 hr under hypoxia, collected, and analyzed by flow cytometry. Data information: Data are expressed as mean ± SEM.
Student t-test, ***P < 0.001; ns, not significant. […]

[2] = system: mouse cornea; assay: Corneal toxicity after topical application (H&E staining); format: in vivo; settings: 2 mM once daily for 6 days
Description: their cytotoxic activities were analyzed in four independent experiments by trypan blue staining. The calculated IC50 values are presented in the normal cell cytotoxicity column in Table 1. B) Topical toxicity of TRAP1 inhibitors. A 3D culture of human corneal epithelium (MCTT HCE) was incubated with 2 mM TRAP1 inhibitors and analyzed by H&E staining.
The culture thickness (n = 5) was measured and analyzed (Table S1). Scale bar, 25 μm. C) Corneal toxicity. After topical application of 2 mM MitoQ, SB-U014, or SB-U015 once daily for 6 days, the mouse cornea was harvested and analyzed by H&E staining. Treatment with […]
Supplementary Table 1. Percentage viability and thickness of the 3D culture of MCTT […]
Drug Percentage viability (%) Thickness (μm)
A 3D culture of human corneal epithelium (MCTT HCE) was incubated with 2 mM TRAP1 inhibitors, and the percentage viability was analyzed by the WST-1 assay (n = 4). Absorbance was measured with a microplate reader. Thickness was calculated from H&E staining images (n = 5) as in Figure S18B, Supporting information. Data Information: The data are […]

## COC1=C(OC)C(=O)C(CCCCCCCCCC[P+](c2ccccc2)(c2ccccc2)c2ccccc2)=C(C)C1=O [MitoQ, mitoquinone]
[1]; 3 μM gamitrinib or 1 μM MitoQ, 6 hr under hypoxia, Fluo-4 AM flow cytometry
  cytosolic calcium concentration in Trap1−/− cells: did not affect
[1]; 6 hr under hypoxia, western blotting
  HIF1α expression in Trap1−/− cells: not further affected; also recorded: did not affect
[1]; hypoxia
  calpain‐1 activation in Trap1−/− cells: did not affect
[2]
  histologic abnormality of cornea after topical application: did not cause any noticeable abnormality

— publication PMC10787068, “Targeting the Mitochondrial Chaperone TRAP1 Alleviates Vascular Pathologies in Ischemic Retinopathy” (Advanced Science, 2023)
